The values below come from PMC4414353, “Synthesis and evaluation of novel amide amino-β-lactam derivatives as cholesterol absorption inhibitors” (Bioorganic & medicinal chemistry, 2015).

Series [1] in a line: MTT cell proliferation assay (cytotoxicity), MDCKIIwt. The format is cell-based. The note with it: dog, MDCKII wild-type cells, 72 h incubation, read-out: LC50, MDCKII. On the procedure:
(§1) Cytotoxicity of ezetimibe 1 and of newly synthesized amides 5a–f was determined using MTT cell proliferation assay in Madine-Darby Canine Kidney II wild-type (MDCKIIwt), MDCKII cells stably expressing hNPC1L1 (hNPC1L1/MDCKII) and HepG2 cell lines (Table 1). hNPC1L1/MDCKII were used as a pharmacologically validated model for investigating NPC1L1-mediated cholesterol uptake.[21] LC50 values were determined and values higher than 100 μM were considered non-toxic.
(§2) Madin-Darby Canine Kidney II wild type (MDCKIIwt), MDCKII cells stably expressing human NPC1L1 (hNPC1L1/MDCKII), and HepG2 cells were cultured in Dulbecco’s Modified Eagle Medium (DMEM) (Gibco,® Life Technologies, Carlsbad, USA) containing 10% fetal calf serum (FCS) (Sigma–Aldrich, Munich, Germany), 1% penicillin/streptomycin in a humidified 5% CO2 incubator at 37 °C. MDCKIIwt cells were stably transfected with human NPC1L1 using Lipofectamine LTX (Life Technologies, Carlsbad, USA) according to the manufacturer’s protocol. After 48 h, selection with 1000 μg/mL G418 (Sigma–Aldrich, Munich, Germany) was started. Selection lasted for two weeks, after which transfected cells were maintained in the medium containing 500 μg/mL G418.
(§3) MDCKIIwt, hNPC1L1/MDCKII, and HepG2 cells were plated in 96-well microtiter plates at 2 × 10^4 cells/mL on day 0. On the next day, tested compounds were added to obtain five 10-fold consecutive dilutions in range from 10^−8 to 10^−4 mol/L, and incubated for further 72 h. Cytotoxicity of the compounds was determined by the MTT cell proliferation assay (Sigma–Aldrich, Munich, Germany).[22] The results are expressed as LC50 values. The absorbance (A) was measured on a microplate reader at 570 nm. Cytotoxicity of each compound was tested in quadruplicate in three independent experiments. Furthermore, toxicity of the compounds in combination with micelles was tested using the same method. MDCKIIwt and hNPC1L1/MDCKII were plated in 96-well microtiter plates (150 μL medium/well) at 2 × 10^5 cells/mL 24 h before the experiment. Micelles were prepared according to the modified method described by Field et al.[23] In brief, micellar components were mixed with DMEM supplemented with 10% FCS to obtain final concentrations of 0.25 mM oleic acid, 50 μM cholesterol, 10 μM compactin, 50 μM mevalonate, 5 mM Na-taurocholate (Sigma–Aldrich, Munich, Germany) and sonicated. Tested compounds (25, 50, 100, 150, 200 μM) were added to the prepared medium, vortexed and applied to the cells for 1 h. Cytotoxicity was determined using the MTT assay.
In general terms: Tetrazolium dyes change colour on reduction, which living cells bring about.

A short description of a further series: in vitro. The note with it: dog. On the procedure: as §1, §2, §3
The nature of series [2]: MTT cell proliferation assay (cytotoxicity), HepG2. The format is cell-based. Particulars: human, HepG2 cells, 72 h incubation, read-out: LC50, HepG2. On the procedure: The results are expressed as LC50 values. […] Cytotoxicity was determined using the MTT assay.
The subject of series [3] is hNPC1L1/MDCKII cells. In words: In vitro [3H]cholesterol uptake. The format is cell-based, Canine. The note with it: for IC50: Canis lupus familiaris, MDCK-II, read-out: IC50, inhibition of cholesterol uptake; for maximum inhibition of cholesterol uptake: compared to untreated cells. The procedure: Ezetimibe analogs 5a–f were tested for inhibition of cholesterol uptake in hNPC1L1/MDCKII cells (Fig. 3).
The results are expressed as percentage of inhibition compared to untreated cells and represent mean ± SEM of three independent experiments. *p <0.05, **p <0.01, ***p <0.001 determined by one-way ANOVA followed by Dunnett’s test.
In vitro cholesterol uptake was determined as described by Dražić et al.[19] In brief, hNPC1L1/MDCKII cells were plated in 24-well plates at 5 × 10^5 cells/mL medium (500 μL medium/well) in DMEM supplemented with 5% LPDS 24 h before the treatment. Cells were washed once with PBS and medium containing micelles, [^3H]cholesterol (0.18 μCi/mL medium) ([1,2-3H(N)] cholesterol, 1 mCi/mL, ARC Inc., St. Louis, USA) and tested compounds in concentrations of 0–200 μM was added. After 1 h, the medium was removed, cells were washed three times with ice-cold 0.2% free fatty acid-free BSA and lysed. Radioactivity in the lysate (100 μL) was measured by liquid scintillation counting. Protein content in lysates was determined with the DC Protein Assay (Bio-Rad, Hercules, USA). The results were expressed as percentage of inhibition compared to untreated cells in CPM/mg protein. Activity of each compound was tested in duplicate in three independent experiments.

The next series concerns C57BL/6 mice. In words: In vivo acute cholesterol absorption. Particulars: 20 mg/kg/day for 2 days, oral gavage, reduction in [3H]cholesterol radioactivity relative to vehicle, mean ± SEM. On the procedure: Finally, we tested the in vivo inhibition of cholesterol absorption of ezetimibe 1 and 4-F-phenyl representatives (5b,d,f) from each group of ezetimibe analogs. For in vivo testing, we used the compounds with lower IC50 values and higher inhibition of cholesterol uptake as determined in vitro. For that purpose, mice were treated with 20 mg/kg/day of each compound for two days, gavaged with [^3H]cholesterol and radioactivity was measured in the liver and three equal parts of the small intestine (duodenum, jejunum, ileum). The results are expressed as percent reduction in radioactivity relative to vehicle (Table 2). […] In the three parts of the small intestine (duodenum, jejunum, ileum), ezetimibe 1 lowered [^3H]cholesterol by 60%, 52%, and 44%, respectively.
26 weeks old male C57BL/6 mice (3–4 per group) were maintained in a temperature-controlled environment under a 12 h light/12 h dark cycle with free access to chow diet (Altromin Spezialfutter GmbH, Lage, Germany) and water. For two days, mice were treated with ezetimibe, tested compounds (20 mg/kg/day) or vehicle. For the treatment, compounds were dissolved in corn oil and administered to mice (100 μL) after 4 h fasting by oral gavage. On day 2, 90 min after compound administration, mice were gavaged with corn oil (200 μL) containing [^3H]cholesterol (2 μCi) ([1,2-3H(N)] cholesterol, 1 mCi/mL, ARC Inc., St. Louis, USA). Liver and small intestines were collected 4 h post-gavage and cholesterol uptake and absorption were determined as previously described.[24] Animal experiments were performed according to the standards set by the Austrian Federal Ministry of Science, Research, and Economy, Vienna, Austria.

Series [4] has as its system hNPC1L1/MDCKII cells. More on the design: method as in PMID 25305716. Particulars: determined previously, cited from earlier work.
The mark [5] stands for this setting: MDCKII cells stably expressing human NPC1L1 (hNPC1L1/MDCKII).
Where [6] appears, read: hNPC1L1/MDCKII cells, 1 h, micelles with [3H]cholesterol.
[7] abbreviates: listed as ezetimibe 1, 20 mg/kg/day.

Each structure is given as a SMILES string. “And” between values parts separate entries of the source, which are not always exact repeats. Equal values may be shown once. Read-outs that look alike come from different tables or passages of the source.

Usually IC50 stands for the concentration that gives 50% inhibition.

Consider `O=C(Cc1ccccc1)N[C@H]1C(=O)N(c2ccc(F)cc2)[C@@H]1c1ccc(O)cc1` [Compound 5c, N-((2R,3R)-1-(4-Fluorophenyl)-2-(4-hydroxyphenyl)-4-oxoazetidin-3-yl)-2-phenylacetamide], for which the CC50 at 72 h (in series [1]; in the series “in vitro” (setting [5]); in series [2]) was over 100 µM each time. The IC50 in the series with hNPC1L1/MDCKII cells [3] (setting [6]) was 88 µM. In the series with hNPC1L1/MDCKII cells [3] (hNPC1L1/MDCKII cells), the “maximum inhibition of cholesterol uptake” value is on record as ~ 40%.
Turning to `O=C1[C@H](CC[C@H](O)c2ccc(F)cc2)[C@@H](c2ccc(O)cc2)N1c1ccc(F)cc1` [Compound 1, Ezetimibe, reference compound], the CC50 at 72 h in series [1] is over 100 µM. Also, the CC50 at 72 h in the series “in vitro” (setting [5]) was found to be 62.3 µM. In series [2], the CC50 at 72 h came out at 69.7 µM. In the series on C57BL/6 mice (20 mg/kg/day), the “In vivo inhibition of cholesterol absorption, Duodenum” value (from here on “In vivo inhibition … Duodenum”) was determined as 60 ± 6 %; the “In vivo inhibition of cholesterol absorption, Ileum” value (“In vivo inhibition … Ileum” below) is given as 44 ± 11%; the “In vivo inhibition of cholesterol absorption, Jejunum” value (“In vivo inhibition … Jejunum” below) was determined as 52 ± 3 %; the “In vivo inhibition of cholesterol absorption, Liver” value (from here on “In vivo inhibition … Liver”) was determined as 53 ± 2 %. In the series with C57BL/6 mice (setting [7]), the “In vivo inhibition … Duodenum” value is 60%; the “In vivo inhibition … Ileum” value is on record as 44%; the “In vivo inhibition … Jejunum” value turned out to be 52%; the “In vivo inhibition … Liver” value was 53%. Besides, the IC50 in the series with hNPC1L1/MDCKII cells [4] (read-out: IC50, inhibition of cholesterol uptake) is 24 µM. For the same compound, the “maximum inhibition of cholesterol uptake” value with hNPC1L1/MDCKII cells [4] was 40%.
As to `O=C(/C=C/c1ccccc1)N[C@H]1C(=O)N(c2ccc(F)cc2)[C@@H]1c1ccc(O)cc1` [Compound 5a, (E)-N-((2R,3R)-1-(4-Fluorophenyl)-2-(4-hydroxyphenyl)-4-oxoazetidin-3-yl)cinnamamide], the figures for the CC50 at 72 h (in series [1]; in the series “in vitro” (setting [5]); in series [2]) were 66.5 µM, 65.1 µM and 63.3 µM, respectively. Also, the IC50 in the series on hNPC1L1/MDCKII cells [3] (setting [6]) was found to be 20 µM. In the series on hNPC1L1/MDCKII cells [3] (hNPC1L1/MDCKII cells), the “concentration at which maximum inhibition of cholesterol uptake was reached” value is 60 µM. In addition, the “maximum inhibition of cholesterol uptake” value in the series on hNPC1L1/MDCKII cells [3] (hNPC1L1/MDCKII cells) is reported as ~ 45%.
For the compound `O=C(N[C@H]1C(=O)N(c2ccc(F)cc2)[C@@H]1c1ccc(O)cc1)c1ccccc1` [Compound 5e, N-((2R,3R)-1-(4-Fluorophenyl)-2-(4-hydroxyphenyl)-4-oxoazetidin-3-yl)benzamide], the CC50 at 72 h was found to be 91.2 µM in series [1], 68.3 µM in “in vitro” (setting [5]) and 67.6 µM in series [2]. The IC50 with hNPC1L1/MDCKII cells [3] (setting [6]) was found to be 70 µM.
On to `O=C(N[C@H]1C(=O)N(c2ccc(F)cc2)[C@@H]1c1ccc(O)cc1)c1ccc(F)cc1` [Compound 5f, 4-Fluoro-N-((2R,3R)-1-(4-fluorophenyl)-2-(4-hydroxyphenyl)-4-oxoazetidin-3-yl)benzamide], for which, in series [1], the CC50 at 72 h came to 78.6 µM. Also, the CC50 at 72 h in “in vitro” (setting [5]) was 64.7 µM. Moreover, the CC50 at 72 h in series [2] is 71.9 µM. In the series on hNPC1L1/MDCKII cells [3] (setting [6]), the IC50 came out at 54 µM. In the series on C57BL/6 mice (20 mg/kg/day), the “In vivo inhibition … Duodenum” value was 42% and 42 ± 2%; the “In vivo inhibition … Ileum” value is 28% and 28 ± 7%; the “In vivo inhibition … Jejunum” value was 32% and 32 ± 6%; the “In vivo inhibition … Liver” value was 37% and 37 ± 8 %.
With `O=C(Cc1ccc(F)cc1)N[C@H]1C(=O)N(c2ccc(F)cc2)[C@@H]1c1ccc(O)cc1` [Compound 5d, 2-(4-Fluorophenyl)-N-((2R,3R)-1-(4-fluorophenyl)-2-(4-hydroxyphenyl)-4-oxoazetidin-3-yl)acetamide], in series [1], the CC50 at 72 h was over 100 µM. The CC50 at 72 h in the series “in vitro” (setting [5]) is over 100 µM. For the same compound, in series [2], the CC50 at 72 h is over 100 µM. In the series on hNPC1L1/MDCKII cells [3] (setting [6]), the IC50 was determined as 46 µM. The “maximum inhibition of cholesterol uptake” value in the series with hNPC1L1/MDCKII cells [3] (hNPC1L1/MDCKII cells) is ~ 40%. In the series with C57BL/6 mice (20 mg/kg/day), the “In vivo inhibition … Duodenum” value was 15% and 15 ± 12%; the “In vivo inhibition … Ileum” value was 24% and 24 ± 13%; the “In vivo inhibition … Jejunum” value was 14% and 14 ± 20%; the “In vivo inhibition … Liver” value is 39% and 39 ± 11 %.
As for `O=C(/C=C/c1ccc(F)cc1)N[C@H]1C(=O)N(c2ccc(F)cc2)[C@@H]1c1ccc(O)cc1` [Compound 5b, (E)-3-(4-Fluorophenyl)-N-((2R,3R)-1-(4-fluorophenyl)-2-(4-hydroxyphenyl)-4-oxoazetidin-3-yl)acrylamide], the CC50 at 72 h in series [1] worked out at 64 µM. Besides, in “in vitro”, the CC50 at 72 h worked out at 63.3 µM. Moreover, in series [2], the CC50 at 72 h was 57.5 µM. The IC50 in the series with hNPC1L1/MDCKII cells [3] amounted to 18 µM. For the same compound, in the series with hNPC1L1/MDCKII cells [3] (hNPC1L1/MDCKII cells), the “concentration at which maximum inhibition of cholesterol uptake was reached” value worked out at 60 µM and the “maximum inhibition of cholesterol uptake” value is recorded as ~ 45%. Also, in the series with C57BL/6 mice (20 mg/kg/day), the “In vivo inhibition … Duodenum” value was 27% and 27 ± 10%; the “In vivo inhibition … Ileum” value is 37% and 37 ± 15%; the “In vivo inhibition … Jejunum” value was 35% and 35 ± 8%; the “In vivo inhibition … Liver” value is 49% and 49 ± 5 %.
